Where two headings read alike, the source gives them in different places.
Columns and labels:
[1] = molecular target: T1, trypsin (Bos taurus, UniProt P00760); assay: Selectivity against various proteases: trypsin (TRY); type: biochemical, bovine
T1 construct: Purified trypsin from bovine pancreas; from tissue; host or cells: bovine pancreas
T1 sequence (P00760 24-246): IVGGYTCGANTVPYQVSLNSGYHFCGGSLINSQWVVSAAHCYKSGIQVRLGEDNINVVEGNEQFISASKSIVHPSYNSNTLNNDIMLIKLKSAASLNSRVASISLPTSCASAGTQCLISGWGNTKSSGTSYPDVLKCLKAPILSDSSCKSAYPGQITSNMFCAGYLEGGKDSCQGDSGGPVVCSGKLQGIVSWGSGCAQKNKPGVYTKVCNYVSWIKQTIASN

[2] = molecular target: T2, thrombin (Homo sapiens, UniProt P00734); assay: Selectivity against various proteases: thrombin (THR); type: biochemical; conditions: human plasma, pH 8.6, 22° C., 10 minute preincubation
T2 construct: Purified thrombin from human plasma; from tissue; host or cells: human plasma
Description: TRY = trypsin, THR = thrombin, PLM = plasmin, CTC = cathepsin C, APM =
Enzyme: Purified thrombin from human plasma
Substrate: Tosyl-glycyl-L-prolyl-L-arginine-p-NA acetate
50 mM Tricine-NaOH buffer (PH 8.6)
(§1) Except for Cathepsin D, the enzyme activities were determined by monitoring the increase in absorbance at 410 nm caused by the hydrolysis of chromogenic substrates. The activity of Cathepsin D was determined by monitoring the absorbance of 5% trichloroacetic acid-soluble material at 280 nm.
(§2) Inhibition of enzymes by the compounds described were determined after a 10 minute preincubation with enzymes in reaction mixtures minus substrate. Reactions were initiated by the addition of substrates. The concentration used for assays were porcine pancreatic elastase at 240 nM and human Cathepsin G at 50 nM. Cathepsin D was used at the concentration that produced approximately 0.15 O.D. increase per 20 min at 280 nm under the standard conditions. All other proteases were assayed at the concentrations that produced approximately 0.1 O.D. change per minute at 410 nm under the standard conditions.

[3] = molecular target: T3, cathepsin C (Bos taurus, UniProt Q3ZCJ8); assay: Selectivity against various proteases: cathepsin C (CTC); type: biochemical, bovine
T3 construct: Purified cathepsin C from bovine spleen; from tissue; host or cells: bovine spleen
T3 sequence (Q3ZCJ8 231-394 limits assumed): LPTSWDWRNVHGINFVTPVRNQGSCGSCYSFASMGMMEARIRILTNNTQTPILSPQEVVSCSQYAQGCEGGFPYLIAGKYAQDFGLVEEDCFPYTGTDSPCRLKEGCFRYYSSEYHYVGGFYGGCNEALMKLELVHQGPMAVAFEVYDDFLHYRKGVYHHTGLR
T3 sequence (Q3ZCJ8 395-463 limits assumed): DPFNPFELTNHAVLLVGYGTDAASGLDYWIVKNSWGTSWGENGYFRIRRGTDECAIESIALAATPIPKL
T3 sequence (Q3ZCJ8 25-134 limits assumed): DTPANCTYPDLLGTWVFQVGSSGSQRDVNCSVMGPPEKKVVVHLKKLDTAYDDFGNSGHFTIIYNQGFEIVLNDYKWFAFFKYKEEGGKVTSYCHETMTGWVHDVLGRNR

[4] = molecular target: T4, aminopeptidase M (Sus scrofa, UniProt P15145); assay: Selectivity against various proteases: aminopeptidase M (APM); type: biochemical, porcine
T4 construct: Purified aminopeptidase M from porcine kidney; from tissue; host or cells: porcine kidney
T4 sequence (P15145 1-963): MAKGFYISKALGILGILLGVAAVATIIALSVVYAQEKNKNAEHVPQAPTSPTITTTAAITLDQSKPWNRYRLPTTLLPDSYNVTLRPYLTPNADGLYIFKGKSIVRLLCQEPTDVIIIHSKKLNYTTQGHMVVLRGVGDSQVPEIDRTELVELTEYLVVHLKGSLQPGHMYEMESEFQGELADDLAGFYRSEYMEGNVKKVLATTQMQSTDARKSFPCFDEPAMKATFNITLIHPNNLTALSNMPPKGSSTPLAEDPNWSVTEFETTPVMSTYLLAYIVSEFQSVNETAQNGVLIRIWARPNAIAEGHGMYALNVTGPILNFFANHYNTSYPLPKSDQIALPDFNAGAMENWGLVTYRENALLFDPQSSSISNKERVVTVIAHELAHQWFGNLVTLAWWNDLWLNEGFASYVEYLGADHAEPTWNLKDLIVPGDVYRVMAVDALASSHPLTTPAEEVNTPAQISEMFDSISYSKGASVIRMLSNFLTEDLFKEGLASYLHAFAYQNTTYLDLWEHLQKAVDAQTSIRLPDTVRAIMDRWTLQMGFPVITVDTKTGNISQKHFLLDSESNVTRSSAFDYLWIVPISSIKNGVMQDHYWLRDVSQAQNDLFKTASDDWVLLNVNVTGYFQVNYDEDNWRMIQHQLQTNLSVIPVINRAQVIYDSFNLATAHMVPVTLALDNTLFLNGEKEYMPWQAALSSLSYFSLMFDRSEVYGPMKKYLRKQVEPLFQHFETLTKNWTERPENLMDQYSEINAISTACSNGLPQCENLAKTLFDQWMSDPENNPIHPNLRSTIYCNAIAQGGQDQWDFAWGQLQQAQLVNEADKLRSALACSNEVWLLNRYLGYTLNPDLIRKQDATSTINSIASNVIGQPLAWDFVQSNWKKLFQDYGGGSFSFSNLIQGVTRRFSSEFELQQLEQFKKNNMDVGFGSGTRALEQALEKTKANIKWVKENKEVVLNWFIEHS

[5] = molecular target: T5, cathepsin G (Homo sapiens, UniProt P08311); assay: Selectivity against various proteases: cathepsin G (CTG); type: biochemical; conditions: cathepsin G 50 nM, human white blood cells, pH 7.5, 30° C., 10 minute preincubation
T5 construct: Purified Cathepsin G from human white blood cells; from tissue; host or cells: human white blood cells
T5 sequence (P08311 21-244 limits assumed): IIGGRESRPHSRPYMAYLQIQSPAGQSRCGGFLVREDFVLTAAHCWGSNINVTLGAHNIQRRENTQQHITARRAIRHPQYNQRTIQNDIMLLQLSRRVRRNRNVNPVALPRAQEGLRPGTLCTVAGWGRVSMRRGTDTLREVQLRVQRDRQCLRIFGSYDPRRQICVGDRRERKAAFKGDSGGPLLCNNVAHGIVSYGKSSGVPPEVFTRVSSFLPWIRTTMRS
Description: as §2, with “Reaction mixture: […] 500 mM NaCl […] 2.0 mM Substrate Except for Cathepsin D, the enzyme activities were determined by monitoring the increase in absorbance at 410 nm caused by the hydrolysis of chromogenic substrates. The activity of Cathepsin D was determined by monitoring the absorbance of 5% trichloroacetic acid-soluble material at 280 nm. Inhibition” for “Inhibition”

[6] = molecular target: T6, cathepsin D (Bos taurus, UniProt P80209); assay: Selectivity against various proteases: cathepsin D (CTD); type: biochemical, bovine
T6 construct: Purified cathepsin D from bovine spleen; from tissue; host or cells: bovine spleen
T6 sequence (P80209 45-390): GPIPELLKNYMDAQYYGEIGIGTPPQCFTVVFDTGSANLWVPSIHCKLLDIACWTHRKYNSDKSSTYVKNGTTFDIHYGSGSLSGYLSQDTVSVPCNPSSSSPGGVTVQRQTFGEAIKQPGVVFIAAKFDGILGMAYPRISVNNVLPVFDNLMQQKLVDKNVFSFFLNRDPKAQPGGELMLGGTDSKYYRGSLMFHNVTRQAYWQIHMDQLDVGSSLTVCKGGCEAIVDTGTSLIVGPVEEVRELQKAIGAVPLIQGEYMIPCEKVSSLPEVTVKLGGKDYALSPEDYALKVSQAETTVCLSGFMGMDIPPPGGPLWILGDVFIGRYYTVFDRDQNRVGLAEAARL

[7] = molecular target: T7, porcine pancreatic elastase (Sus scrofa, UniProt P00772); assay: Selectivity against various proteases: porcine pancreatic elastase (PPE); type: biochemical
T7 construct: Purified elastase from porcine pancreas; from tissue; host or cells: porcine pancreas
T7 sequence (P00772 27-266): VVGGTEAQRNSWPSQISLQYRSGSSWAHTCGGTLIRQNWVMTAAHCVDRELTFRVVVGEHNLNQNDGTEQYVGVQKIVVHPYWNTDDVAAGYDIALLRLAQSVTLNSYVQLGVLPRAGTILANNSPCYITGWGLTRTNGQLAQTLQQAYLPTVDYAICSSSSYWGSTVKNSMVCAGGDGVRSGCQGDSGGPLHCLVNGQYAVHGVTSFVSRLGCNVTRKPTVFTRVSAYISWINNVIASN
Description: Porcine Pancreatic Elastase (PPE)
Enzyme: Purified elastase from porcine pancreas
Substrate: MeO-succinyl-L-alanyl-L-alanyl-L-prolyl-L-valine-pNA
50 mM Tris[Tris(hydroxymethyl) aminomethane]. HCl buffer (pH 8.9)
as §1
as §2, with “The concentration used for assays were porcine pancreatic elastase at 240 nM and human Cathepsin G at 50 nM.” left out

[8] = trypsin, bovine pancreas, pH 8.8, 22° C., 10 minute preincubation, read-out: TRY IC50 (converted)
[9] = cathepsin C, bovine spleen, pH 5.4, 22° C., 10 minute preincubation, read-out: CTC IC50 (converted)
[10] = aminopeptidase M, porcine kidney, pH 7.5, 22° C., 10 minute preincubation, read-out: APM IC50 (converted)
[11] = cathepsin D, bovine spleen, pH 3.2, 30° C., 10 minute preincubation, read-out: CTD IC50 (converted)
[12] = porcine pancreatic elastase 240 nM, pH 8.9, 30° C., 10 minute preincubation, read-out: PPE IC50 (converted)

SMILES	IC50 [2]	IC50 [3, 9]	IC50 [4, 10]	IC50 [5]	IC50 [6, 11]	IC50 [3]	IC50 [4]	IC50 [1]	IC50 [6]	IC50 [7, 12]	TRY IC50 ([1]; trypsin, bovine pancreas, pH 8.8, 22° C., 10 minute preincubation)	IC50 [1, 8]	IC50 [7]
CO[C@H]1C(=O)N2C(C(=O)OC(c3ccccc3)c3ccccc3)=C(C)C3(CC3(c3ccccc3)c3ccccc3)S(=O)(=O)[C@H]12 (stereo partly drawn) [Example 9, Benzhydryl 7α-methoxy-2-spiro (2',2'-diphenyl) cyclopropyl-3-methyl-3-cephem-4-carboxylate-1,1-dioxide]	10 µM	–	–	–	–	10 µM	10 µM	10 µM	10 µM	0.0578 µM	–	–	–
CC1=C(C(=O)N2CCCC2)N2C(=O)[C@H](Br)[C@H]2S(=O)(=O)C12CC2(c1ccccc1)c1ccccc1 (stereo partly drawn) [Example 6, 7α Bromo-2-spiro(2',2'-diphenyl)cyclopropyl-3-methyl-3-cephem-4-pyrrolidine carboxamide-1,1-dioxide]	39 µM	9.77 µM	9.77 µM	–	9.77 µM	–	–	39 µM	–	–	–	–	–
CO[C@H]1C(=O)N2C(C(=O)N3CCCCC3)=C(C)C3(CC3(c3ccccc3)c3ccccc3)S(=O)(=O)[C@H]12 (stereo partly drawn) [Example 11, 7α-Methoxy-2-spiro (2',2'-diphenyl)cyclopropyl-3-methyl-3-cephem-4-piperidine carboxamide-1,1-dioxide]	39.9 µM	10 µM	10 µM	–	10 µM	–	–	–	–	–	–	10 µM	0.0316 µM
CO[C@H]1C(=O)N2C(C(=O)OCC(Cl)(Cl)Cl)=C(C)C3(CC3(c3ccccc3)c3ccccc3)S(=O)(=O)[C@H]12 (stereo partly drawn) [Example 8, 2,2,2-Trichloroethyl-7α-methoxy-2-spiro(2',2'-diphenyl) cyclo-propyl-3-methyl-3-cephem-4-carboxylate-1,1-dioxide]	9.98 µM	–	–	–	–	9.98 µM	9.98 µM	–	9.98 µM	–	–	–	–
CCOC(=O)C1CC12C(C)=C(C(=O)OC(c1ccccc1)c1ccccc1)N1C(=O)[C@H](Br)[C@H]1S2(=O)=O (stereo partly drawn) [Example 13 (1), Benzhydryl 7α-bromo-2-spiro(2'-ethoxycarbonyl)cyclo propyl-3-methyl-3-cephem-4-carboxylate-1,1-dioxide]	40 µM	–	–	–	–	40 µM	40 µM	–	–	–	–	–	–

The remaining compounds from weak to strong by IC50 [2], led by results:

IC50 [2]	IC50 [3, 9]	IC50 [4, 10]	IC50 [5]	IC50 [6, 11]	IC50 [3]	IC50 [4]	IC50 [1]	IC50 [6]	IC50 [7, 12]	TRY IC50 ([1]; trypsin, bovine pancreas, pH 8.8, 22° C., 10 minute preincubation)	SMILES	IC50 [1, 8]	IC50 [7]
55.3 µM	–	–	–	46.2 µM	55.3 µM	55.3 µM	–	–	–	–	CC1=C(C(=O)OC(c2ccccc2)c2ccccc2)N2C(=O)[C@H](Br)[C@H]2S(=O)(=O)C12CC2(c1ccc(Cl)cc1)c1ccc(Cl)cc1 (single isomer, unassigned) [Example 12, Benzhydryl 7α-bromo-2-spiro [2',2'-(4',4'-dichloro)diphenyl]cyclopropyl-3-methyl-3-cephem-4-carboxylate-1,1-dioxide]	–	–
40 µM	–	–	–	50 µM	40 µM	40 µM	–	–	–	0.089 µg/mL	CC1=C(C(=O)OC(c2ccccc2)c2ccccc2)N2C(=O)[C@H](Br)[C@H]2S(=O)(=O)C12CC2(C)c1ccccc1 (stereo partly drawn) [Example 13 (2), Benzhydryl 7α-bromo-2-spiro(2'-phenyl-2'-methyl) cyclopropyl-3-methyl-3-cephem-4-carboxylate-1,1-dioxide]	–	–
40 µM	9.99 µM	–	30.9 µM	9.99 µM	–	40 µM	40 µM	–	0.0954 µM	–	CO[C@H]1C(=O)N2C(C(=O)N3CCCC3)=C(C)C3(CC3(c3ccccc3)c3ccccc3)S(=O)(=O)[C@H]12 (stereo partly drawn) [Example 10, 7-α-Methoxy-2-spiro (2',2'-diphenyl)cyclopropyl-3-methyl-3-cephem-4-pyrrolidine carboxamide-1,1-dioxide]	–	–
40 µM	60 µM	60 µM	20 µM	17.2 µM	–	–	–	–	–	–	CC1=C(C(=O)OC(c2ccccc2)c2ccccc2)N2C(=O)[C@H](Cl)[C@H]2S(=O)(=O)C12CC2(c1ccccc1)c1ccccc1 (single isomer, unassigned) [Example 1, Benzhydryl 7α-chloro-2-spiro(2',2'-diphenyl) cyclopropyl-3-methyl-3-cephem-4-carboxylate-1,1-dioxide]	60 µM	–
40 µM	–	–	–	50 µM	40 µM	40 µM	40 µM	–	–	–	CC1=C(C(=O)OC(c2ccccc2)c2ccccc2)N2C(=O)[C@H](Br)[C@H]2S(=O)(=O)C12CC2(c1ccc(F)cc1)c1ccc(F)cc1 (single isomer, unassigned) [Example 13, Benzhydryl 7α-bromo-2-spiro[2',2'-(4',4'-difluoro)diphenyl] cyclopropyl-3-methyl-3-cephem-4-carboxylate-1,1-dioxide]	–	–

Reference: patent US5264430A, “2-spirocyclopropyl cephalosporin sulfone derivatives” (SynPhar Laboratories, Inc., priority 1991, dated 1993)
